In PMC6222789, “CF3-Substituted Mollugin 2-(4-Morpholinyl)-ethyl ester as a Potential Anti-inflammatory Agent with Improved Aqueous Solubility and Metabolic Stability” (Molecules : A Journal of Synthetic Chemistry and Natural …, 2018):
Where two headings read alike, the source gives them in different places.

Assays:
[1] = Plasma stability, rat plasma; format: in vitro ADME; conditions: for Plasma Stability (% Remain, 2 h) Rat: 37 °C, 1 μM
Method: (§1) The plasma stability assay was performed by incubation of human or rat plasma with a test compound in a final concentration of 1 μM for 120 min at 37 °C. The incubation was terminated by addition of 40 μL of ice-cold acetonitrile and vortexing for 5 min. The precipitated proteins were removed by centrifugation at 14,000× g for 5 min at 4 °C. Aliquots of the supernatant were injected onto a Shimadzu Nexera XR LC system. Percentages of the parent compound remaining were calculated by comparing peak areas using the Xcalibur software (version 1.6.1, Waltham, MA, USA).

[2] = Metabolic stability, human liver microsomes; format: in vitro ADME; conditions: 1 μM
Method: (§2) Pooled human liver microsomes (150 donor) and dog, rat, mouse liver microsomes were obtained from BD Gentest Co. (Woburn, MA, USA). NADPH regeneration system was obtained from Promega. S-Mephenytoin, 4-hydroxymephenytoin, and 1’-hydroxymidazolam were purchased from Ultrafine Chemical Co. (Manchester, UK). All other chemicals and solvents were of the highest grade available. The metabolic stability assay was performed by incubation of human or selected animal liver microsomes (most often dog, rat and mouse), at 37 °C with a test compound at a final concentration of 1 μM, in the presence of 0.5 mg/mL microsomal protein and NADPH regeneration system, in a total volume of 100 μL of 100 mM phosphate buffer, pH 7.4. The incubation was started by the addition of NADPH regeneration system and terminated with 40 μL of ice-cold acetonitrile at 0 and 30 min. Precipitated proteins were removed by centrifugation at 10,000× g for 5 min at 4 °C. Aliquots of the supernatant were injected onto an LC-MS/MS system. Incubations terminated prior to the addition of NADPH regeneration system (time point 0 min) were used as standards, defined as 100%. Percent of the parent compound remaining was calculated by comparing peak area.

hERG channel = biological target: T1, hERG channel (Homo sapiens, UniProt Q12809); assay: hERG channel binding assay (fluorescence polarization)
T1 construct: purchased Invitrogen PV5365
Method: hERG channel binding assay was performed using Invitrogen’s hERG Fluorescence Polarization Assay kit (PV5365) with Synergy Neo plate reader (BioTek, Winooski, VT, USA). The binding assay was carried out according to the kit manufacturer’s instructions.

[3] = Metabolic stability, rat liver microsomes; format: in vitro ADME; conditions: for Metabolic Stability (% Remain, 30 min) Rat: 1 μM
Method: as §2

[4] = test system: IL-6-induced adhesion of U937 monocytic cells to HT-29 cells; assay: IL-6-induced colonic epithelial cell adhesion assay; format: cell-based, human
Method: (§3) Synthesized mollugin derivatives were subjected to the colonic epithelial cell adhesion assay, which mimics the initial stage of colon inflammation. The inhibition of TNF-α-induced or IL-6-induced adhesion of U937 monocytic cells to HT-29 cells in 10 μM solution of synthesized molecules was measured, and the results are summarized in Table 1 and Table 2. Mesalazine (2), a commercially available medication for the treatment of IBD, and mollugin were chosen as assay positive controls.
(§4) HT-29 human colonic epithelial cells and U937 human pre-monocytic cells were grown in RPMI 1640 medium supplemented with 10% FBS, 100 IU/mL penicillin, and 100 µg/mL streptomycin in a humidified incubator under 5% CO2/95% air.
(§5) U937 monocytic cell adhesion to colonic epithelial cells was evaluated using human U937 pre-monocytic cells, which were prelabeled with 2′,7′-bis(2-carboxyethyl)-5(6)-carboxyfluorescein acetoxymethyl ester (BCECF/AM, 10 μg/mL) for 1 h at 37 °C. HT-29 cells cultured in 24-well plates were pretreated with test compound, 5-ASA, or tofacitinib for 1 h prior to incubation with TNF-α (10 ng/mL) and IL-6 (5 ng/mL) for an additional 3 h. Cells were then co-incubated with BCECF/AM-prelabeled U937 cells (1 × 10^6 cells/well) for 30 min at 37 °C. Non-adhering U937 cells were removed, and the HT-29 cells and adherent U937 cells were washed twice with PBS. Images were captured and processed with a Nikon ECLIPSE TE2000-U microscope and NIS-Elements F software (Nikon, Tokyo, Japan). For quantitative analysis, other sets of cells were lysed in 0.1% Triton X-100 in Tris (0.1 M), and the fluorescence was measured using a fluorescence-detecting microplate reader (Promega , Madison, WI, USA) at […]. Experiments were performed in triplicate and repeated at least three times independently.

[5] = Metabolic stability, dog liver microsomes; format: in vitro ADME; conditions: for Metabolic Stability (% Remain, 30 min) Dog: 1 μM
Method: as §2

[6] = test system: TNF-α-induced adhesion of U937 monocytic cells to HT-29 cells; assay: TNF-α-induced colonic epithelial cell adhesion assay; format: cell-based, human
Method: as §3, §4, §5

[7] = Metabolic stability, mouse liver microsomes; format: in vitro ADME; conditions: for Metabolic Stability (% Remain, 30 min) Mouse: 1 μM
Method: as §2

[8] = Plasma stability, human plasma; format: in vitro ADME; conditions: 37 °C, 1 μM
Method: as §1

[9] = test system: TNF-α-induced adhesion of U937 monocytic cells to HT-29 cells; set-up: method as in PMID 19765578; conditions: cell adhesion assay and IBD animal model; cited from earlier work
Serum Amyloid A (SAA) = assay: Serum SAA level in DSS-induced colitis mouse model (ELISA); format: in vivo; conditions: 4% DSS-induced mouse model; mesalazine 20 mM; ELISA
Method: The level of Serum Amyloid A (SAA) was measured using a mouse SAA ELISA kit according to the manufacturer’s instructions (E-90SAA, Immunology Consultants Laboratory, Inc., Portland, OR, USA). All samples were assayed in duplicate. The concentrations of SAA were determined by comparison to serial dilutions of purified SAA calibrator.
Figure 2 Analysis of mouse serum amyloid A (SAA) level. Effect of 6d on the level of SAA in the 4% dextran sulfate sodium (DSS)-induced mouse model. The level of SAA in serum was determined by ELISA. The control mice received water + vehicle (water), and the treated groups received 4% DSS + vehicle or DSS with mesalazine (20 mM), 6d (10 μM), or 15c (10 μM). TEXT PRINTED IN THE PICTURE: vehecle: mSS assay (ng/ml): 252.08 | vehecle: mSS assay (ng/ml): 732.93 (4% DSS) | 2: mSS assay (ng/ml): 788.86 (4% DSS) | 6d: mSS assay (ng/ml): 295.77 (4% DSS) | 15c: mSS assay (ng/ml): 300.95 (4% DSS)

[10] = Homo sapiens, Epithelial cell, U937 adhesion to HT-29 cells, IL-6-induced
[11] = Homo sapiens, Epithelial cell, U937 adhesion to HT-29 cells, TNF-α-induced
[12] = human, Invitrogen hERG Fluorescence Polarization Assay kit (PV5365)

T1 sequence (Q12809 whole entry): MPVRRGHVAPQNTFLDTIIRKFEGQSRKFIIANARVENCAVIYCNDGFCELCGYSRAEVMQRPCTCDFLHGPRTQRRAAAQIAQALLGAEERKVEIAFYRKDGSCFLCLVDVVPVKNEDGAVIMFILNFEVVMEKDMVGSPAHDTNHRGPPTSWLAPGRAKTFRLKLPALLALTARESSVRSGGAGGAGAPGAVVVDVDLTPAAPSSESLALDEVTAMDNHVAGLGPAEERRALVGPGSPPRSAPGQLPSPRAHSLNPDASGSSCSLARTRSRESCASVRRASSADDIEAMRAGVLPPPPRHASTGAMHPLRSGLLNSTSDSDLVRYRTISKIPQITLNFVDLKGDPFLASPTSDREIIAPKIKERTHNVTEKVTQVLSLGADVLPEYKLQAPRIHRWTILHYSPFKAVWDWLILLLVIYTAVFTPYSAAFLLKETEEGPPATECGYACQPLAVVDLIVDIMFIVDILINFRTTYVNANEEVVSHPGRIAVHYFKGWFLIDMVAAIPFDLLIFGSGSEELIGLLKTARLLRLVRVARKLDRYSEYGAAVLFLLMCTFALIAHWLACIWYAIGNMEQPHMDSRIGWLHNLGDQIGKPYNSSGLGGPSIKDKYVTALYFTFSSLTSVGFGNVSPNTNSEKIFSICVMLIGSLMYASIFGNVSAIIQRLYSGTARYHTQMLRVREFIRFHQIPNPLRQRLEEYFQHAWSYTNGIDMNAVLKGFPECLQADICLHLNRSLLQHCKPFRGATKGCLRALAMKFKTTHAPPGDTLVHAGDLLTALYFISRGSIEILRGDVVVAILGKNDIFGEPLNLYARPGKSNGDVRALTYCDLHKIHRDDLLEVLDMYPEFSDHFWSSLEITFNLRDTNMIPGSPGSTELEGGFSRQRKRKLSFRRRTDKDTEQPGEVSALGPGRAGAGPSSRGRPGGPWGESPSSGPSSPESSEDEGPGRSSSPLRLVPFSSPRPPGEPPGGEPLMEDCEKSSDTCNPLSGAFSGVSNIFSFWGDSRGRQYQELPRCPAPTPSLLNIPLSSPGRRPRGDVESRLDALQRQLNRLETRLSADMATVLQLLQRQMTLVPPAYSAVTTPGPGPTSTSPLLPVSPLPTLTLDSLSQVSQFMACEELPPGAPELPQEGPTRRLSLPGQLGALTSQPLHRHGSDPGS

| SMILES | Plasma Stability (% Remain, 2 h) Rat [1] | Metabolic Stability (% Remain, 30 min) Human [2] | Metabolic Stability (% Remain, 30 min) Rat [3] | Metabolic Stability (% Remain, 30 min) Dog [5] | Metabolic Stability (% Remain, 30 min) Mouse [7] | Plasma Stability (% Remain, 2 h) Human [8] | IC50 (hERG channel) | inhibition at 10 µM [4, 10] | inhibition at 10 µM [6, 11] | further results |
| --- | --- | --- | --- | --- | --- | --- | --- | --- | --- | --- |
| CC1(C)C=Cc2c(C(=O)OCCCN3CCOCC3)c(O)c3ccccc3c2O1 [6e, 3-Morpholinopropyl 6-hydroxy-2,2-dimethyl-2H-benzo[h]chromene-5-carboxylate] | 94 % Remain | 36 % Remain | 16 % Remain | 42 % Remain | 24 % Remain | 100 % Remain | > 10 µM | 26.6 ± 5.1% | 40.1 ± 3.5% |  |
| CN1CCN(CCCOC(=O)c2c3c(c4ccccc4c2O)OC(C)(C)C=C3)CC1 [6i, 3-(4-Methylpiperazin-1-yl)propyl 6-hydroxy-2,2-dimethyl-2H-benzo[h]chromene-5-carboxylate] |  |  |  |  |  |  | 5.3 µM | 27.6 ± 4.2% | 58.5 ± 6.4% | IC50 (hERG channel; [12]): 5 µM |
| COC(=O)c1c2c(c3ccccc3c1O)OC(C)(C)C=C2 [compound 1, mollugin] | 16 % Remain | 33 % Remain | 19 % Remain | 33 % Remain | 40 % Remain | 92 % Remain | > 10 µM | 40.8 ± 6.2% | 37.8 ± 5.7% | stability in rat plasma [1]: unstable; metabolic stability with rat liver microsomes [3]: generally unstable; improved efficacy over mesalazine [9]: at least 1000 fold; metabolic stability with dog liver microsomes [5]: generally unstable; metabolic stability with mouse liver microsomes [7]: generally unstable |
| Nc1ccc(O)c(C(=O)O)c1 [compound 2, 5-Aminosalicylic acid, reference compound] |  |  |  |  |  |  |  |  |  | serum SAA level (mSS assay) (Serum Amyloid A (SAA)): 788.86 ng/mL; inhibition at 20000 µM ([4]; Homo sapiens, Epithelial cell, at 20 mM, U937 adhesion to HT-29 cells, IL-6-induced): ~30%; % Inhibition IL-6 ([4]; at 20 mM, U937 adhesion to HT-29 cells, IL-6-induced, listed as 2 (5-ASA)): 32.6 ± 7.3 (at 20 mM) %; inhibition at 20000 µM ([6]; Homo sapiens, Epithelial cell, at 20 mM, U937 adhesion to HT-29 cells, TNF-α-induced): ~30%; % Inhibition TNF-α ([6]; at 20 mM, U937 adhesion to HT-29 cells, TNF-α-induced, listed as 2 (5-ASA)): 28.8 ± 7.7 (at 20 mM) % |

More lines, main results first:

| Plasma Stability (% Remain, 2 h) Rat [1] | Metabolic Stability (% Remain, 30 min) Human [2] | Metabolic Stability (% Remain, 30 min) Rat [3] | Metabolic Stability (% Remain, 30 min) Dog [5] | Metabolic Stability (% Remain, 30 min) Mouse [7] | Plasma Stability (% Remain, 2 h) Human [8] | SMILES | IC50 (hERG channel) | inhibition at 10 µM [4, 10] | inhibition at 10 µM [6, 11] | further results |
| --- | --- | --- | --- | --- | --- | --- | --- | --- | --- | --- |
| 99 % Remain | 58 % Remain | 13 % Remain | 12 % Remain | 11 % Remain | 100 % Remain | CN1CCC[C@@H]1COC(=O)c1c2c(c3ccccc3c1O)OC(C)(C)C=C2 [6f, (R)-(1-Methylpyrrolidin-2-yl)methyl 6-hydroxy-2,2-dimethyl-2H-benzo[h]chromene-5-carboxylate] | > 10 µM | 38.2 ± 5.1% | 48.3 ± 6.2% |  |
| 100 % Remain | 78 % Remain | 23 % Remain | 36 % Remain | 14 % Remain | 100 % Remain | CN1CCC(OC(=O)c2c3c(c4ccccc4c2O)OC(C)(C)C=C3)CC1 [6g, 1-Methylpiperidin-4-yl 6-hydroxy-2,2-dimethyl-2H-benzo[h]chromene-5-carboxylate] | > 10 µM | 38.9 ± 5% | 54.8 ± 5.2% |  |
| 89 % Remain | 76 % Remain | 23 % Remain | 11 % Remain | 9 % Remain | 79 % Remain | CN1CCN(CCOC(=O)c2c3c(c4ccccc4c2O)OC(C)(C)C=C3)CC1 [6h, 2-(4-Methylpiperazin-1-yl)ethyl 6-hydroxy-2,2-dimethyl-2H-benzo[h]chromene-5-carboxylate] | 3.3 µM | 18.2 ± 3.1% | 42.2 ± 6.4% | IC50 (hERG channel; [12]): 3 µM; inhibition of IL-6-induced monocyte-epithelial adhesion ([4]; 10 μM): reduced % inhibition; inhibition of TNF-α-induced monocyte-epithelial adhesion ([6]; 10 μM): good % inhibition |
